Measured values published in US9718790B2, “Triazine derivative and pharmaceutical composition having an analgesic activity comprising the same” (SHIONOGI & CO., LTD., priority 2010, dated 2017).

Target: human P2X3 receptor (Homo sapiens (Human), UniProt P56373)
Test: Evaluation of human P2X3 receptor inhibitory activity (Fluo-3 calcium fluorescence, FDSS 3000, ATP stimulation);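 also: stimulus was 50 nM ATP with fluorescence followed for 3 min, and the response per well was peak post-ATP fluorescence divided by the reading at measurement start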
Type: cell-based
Conditions: C6BU-1 cells stably expressing human P2X3 receptor, Fluo-3 fluorescence, FDSS 3000

human P2X3 receptor, sequence (P56373 whole entry): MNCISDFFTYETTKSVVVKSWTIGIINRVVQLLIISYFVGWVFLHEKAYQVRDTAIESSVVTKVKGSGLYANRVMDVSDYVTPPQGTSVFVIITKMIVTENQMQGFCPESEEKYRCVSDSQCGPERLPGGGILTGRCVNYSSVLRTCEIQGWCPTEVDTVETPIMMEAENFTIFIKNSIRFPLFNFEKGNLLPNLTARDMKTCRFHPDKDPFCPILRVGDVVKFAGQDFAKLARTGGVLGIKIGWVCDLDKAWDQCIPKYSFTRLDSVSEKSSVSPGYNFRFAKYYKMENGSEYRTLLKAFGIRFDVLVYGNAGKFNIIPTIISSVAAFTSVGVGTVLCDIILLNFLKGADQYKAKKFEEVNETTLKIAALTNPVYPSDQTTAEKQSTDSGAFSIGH

Point of comparison: `Cc1ccc(Cn2c(=O)n(C[C@H](C)C(=O)O)c(=O)[nH]/c2=N\c2ccc(C3CCCC3)cc2)cc1` [Compound I-1113], IC50 123 nM. Against it:
- Cc1ccc(Cn2c(=O)n(C[C@H](C)C(=O)O)c(=O)[nH]/c2=N\c2ccc(N3CCCC3)cc2)cc1 [Compound I-1091] — within 1.5-fold, 179 nM
- CC(C)Oc1ccc(/N=c2\[nH]c(=O)n(C[C@H](C)C(=O)O)c(=O)n2Cc2ccc(I)cc2)cc1 [Compound I-1092] — 1.8-fold lower, 69 nM
- Cc1ccc(Cn2c(=O)n(C[C@H](C)C(=O)O)c(=O)[nH]/c2=N\c2ccc(N3CCCCC3)cc2)cc1 [Compound I-1093] — 3.2-fold lower, 38 nM
- COC(=O)[C@@H](C)Cn1c(=O)[nH]/c(=N\c2ccc(C=C3CCCC3)cc2)n(Cc2ccc(C)cc2)c1=O [Compound I-1094] — within 1.5-fold, 103 nM
- COC(=O)[C@@H](C)Cn1c(=O)[nH]/c(=N\c2ccc(CC3CCCC3)cc2)n(Cc2ccc(C)cc2)c1=O [Compound I-1096] — within 1.5-fold, 94 nM
- COC(=O)[C@@H](C)Cn1c(=O)[nH]/c(=N\c2ccc(CC3CCCC3)cc2)n(Cc2ccc(Cl)cc2)c1=O [Compound I-1097] — within 1.5-fold, 141 nM
- Cc1ccc(Cn2c(=O)n(C[C@H](C)C(=O)O)c(=O)[nH]/c2=N\c2ccc(C=C3CCCC3)cc2)cc1 [Compound I-1098] — 1.7-fold lower, 74 nM
- C[C@@H](Cn1c(=O)[nH]/c(=N\c2ccc(C=C3CCCC3)cc2)n(Cc2ccc(Cl)cc2)c1=O)C(=O)O [Compound I-1099] — 1.8-fold lower, 70 nM
- Cc1ccc(Cn2c(=O)n(C[C@H](C)C(=O)O)c(=O)[nH]/c2=N\c2ccc(CC3CCCC3)cc2)cc1 [Compound I-1100] — 2.9-fold lower, 43 nM
- C[C@@H](Cn1c(=O)[nH]/c(=N\c2ccc(CC3CCCC3)cc2)n(Cc2ccc(Cl)cc2)c1=O)C(=O)O [Compound I-1101] — 2.3-fold lower, 53 nM
- COC(=O)[C@@H](C)Cn1c(=O)[nH]/c(=N\c2ccc3c(c2)CCCO3)n(Cc2ccc(Cl)cc2)c1=O [Compound I-1102] — within 1.5-fold, 148 nM
- C[C@@H](Cn1c(=O)[nH]/c(=N\c2ccc3c(c2)CCCO3)n(Cc2ccc(Cl)cc2)c1=O)C(=O)O [Compound I-1103] — 3.4-fold higher, 423 nM
- COC(=O)[C@H](C)Cn1c(=O)[nH]/c(=N\c2ccc(OC(C)C)cc2)n(Cc2ccc(C)cc2)c1=O [Compound I-1104] — 11-fold lower, 11 nM
- Cc1ccc(Cn2c(=O)n(C[C@@H](C)C(=O)O)c(=O)[nH]/c2=N\c2ccc(OC(C)C)cc2)cc1 [Compound I-1105] — within 1.5-fold, 152 nM
- CCOc1ccc(/N=c2\[nH]c(=O)n(C[C@@H](C)C(=O)OC)c(=O)n2Cc2ccc(C)cc2)cc1Cl [Compound I-1106] — 18-fold lower, 7 nM
- CCOc1ccc(/N=c2\[nH]c(=O)n(C[C@@H](C)C(=O)O)c(=O)n2Cc2ccc(C)cc2)cc1Cl [Compound I-1107] — 2.9-fold lower, 43 nM
- Cc1ccc(Cn2c(=O)n(C[C@H](C)C(=O)O)c(=O)[nH]/c2=N\c2ccc(C3CCCCC3)cc2)cc1 [Compound I-1108] — 2.5-fold lower, 50 nM
- Cc1ccc(Cn2c(=O)n(C[C@H](C)C(=O)O)c(=O)[nH]/c2=N\c2cccc(C3CCCCC3)c2)cc1 [Compound I-1109] — 3.5-fold higher, 430 nM
- Cc1ccc(Cn2c(=O)n(C[C@H](C)C(=O)O)c(=O)[nH]/c2=N\c2cccc(C3CCCC3)c2)cc1 [Compound I-1110] — 3.2-fold higher, 397 nM
- Cc1ccc(Cn2c(=O)n(C[C@H](C)C(=O)O)c(=O)[nH]/c2=N\c2ccc(C3=CCCCC3)cc2)cc1 [Compound I-1111] — within 1.5-fold, 161 nM
- Cc1ccc(Cn2c(=O)n(C[C@H](C)C(=O)O)c(=O)[nH]/c2=N\c2cccc(C3=CCCCC3)c2)cc1 [Compound I-1112] — 7.1-fold higher, 872 nM
- Cc1ccc(Cn2c(=O)n(C[C@H](C)C(=O)O)c(=O)[nH]/c2=N\c2ccc(C3=CCCC3)cc2)cc1 [Compound I-1114] — 1.7-fold higher, 214 nM
- Cc1ccc(Cn2c(=O)n(C[C@H](C)C(=O)O)c(=O)[nH]/c2=N\c2cccc(C3=CCCC3)c2)cc1 [Compound I-1115] — 4.2-fold higher, 516 nM
- COC(=O)[C@@H](C)Cn1c(=O)[nH]/c(=N\c2ccc(OC3CCOCC3)nc2)n(Cc2ccc(C)cc2)c1=O [Compound I-1118] — 3.1-fold higher, 387 nM
- Cc1ccc(Cn2c(=O)n(C[C@H](C)C(=O)O)c(=O)[nH]/c2=N\c2ccc(OC3CCOCC3)nc2)cc1 [Compound I-1120] — 4.3-fold higher, 534 nM
- Cc1ccc(Cn2c(=O)n(C[C@H](C)C(=O)O)c(=O)[nH]/c2=N\c2ccc(Oc3ccncc3)cc2)cc1 [Compound I-1122] — 15-fold lower, 8 nM
- Cc1ccc(Cn2c(=O)n(C[C@H](C)C(=O)O)c(=O)[nH]/c2=N\c2ccc(Oc3cccnc3)cc2)cc1 [Compound I-1123] — 8.8-fold lower, 14 nM
- COC(=O)[C@@H](C)Cn1c(=O)[nH]/c(=N\c2ccc(Oc3ccncc3)cc2)n(Cc2ccc(C)cc2)c1=O [Compound I-1125] — 31-fold lower, 4 nM
- COC(=O)[C@@H](C)Cn1c(=O)[nH]/c(=N\c2ccc(Oc3cccnc3)cc2)n(Cc2ccc(C)cc2)c1=O [Compound I-1126] — 15-fold lower, 8 nM
- COC(=O)[C@@H](C)Cn1c(=O)[nH]/c(=N\c2ccc(OC(C)C)c(O)c2)n(Cc2ccc(C)cc2)c1=O [Compound I-1128] — 5.9-fold lower, 21 nM
- COC(=O)[C@@H](C)Cn1c(=O)[nH]/c(=N\c2ccc(OC(C)C)c(OC)c2)n(Cc2ccc(C)cc2)c1=O [Compound I-1129] — 11-fold lower, 11 nM
- COC(=O)[C@@H](C)Cn1c(=O)[nH]/c(=N\c2ccc(OC(C)C)c(OC(C)C)c2)n(Cc2ccc(C)cc2)c1=O [Compound I-1130] — within 1.5-fold, 133 nM
- C=Cc1ccc(Cn2c(=O)n(C[C@H](C)C(=O)OC)c(=O)[nH]/c2=N\c2ccc(OC(C)C)cc2)cc1 [Compound I-1131] — within 1.5-fold, 105 nM
- COC(=O)[C@@H](C)Cn1c(=O)[nH]/c(=N\c2cccc(CC(C)C)c2)n(Cc2ccc(C)cc2)c1=O [Compound I-1132] — 4.8-fold higher, 586 nM
- CCc1ccc(Cn2c(=O)n(C[C@H](C)C(=O)OC)c(=O)[nH]/c2=N\c2ccc(OC(C)C)cc2)cc1 [Compound I-1133] — 2.4-fold lower, 51 nM
- Cc1ccc(Cn2c(=O)n(C[C@H](C)C(=O)O)c(=O)[nH]/c2=N\c2ccc(OC(C)C)c(O)c2)cc1 [Compound I-1134] — 3.5-fold lower, 35 nM
- COc1cc(/N=c2\[nH]c(=O)n(C[C@H](C)C(=O)O)c(=O)n2Cc2ccc(C)cc2)ccc1OC(C)C [Compound I-1135] — 6.8-fold lower, 18 nM
- Cc1ccc(Cn2c(=O)n(C[C@H](C)C(=O)O)c(=O)[nH]/c2=N\c2ccc(OC(C)C)c(OC(C)C)c2)cc1 [Compound I-1136] — 1.7-fold higher, 204 nM
- Cc1ccc(Cn2c(=O)n(C[C@H](C)C(=O)O)c(=O)[nH]/c2=N\c2cccc(CC(C)C)c2)cc1 [Compound I-1137] — 5.5-fold higher, 678 nM
- C=Cc1ccc(Cn2c(=O)n(C[C@H](C)C(=O)O)c(=O)[nH]/c2=N\c2ccc(OC(C)C)cc2)cc1 [Compound I-1139] — 2.4-fold lower, 52 nM
- CCc1ccc(Cn2c(=O)n(C[C@H](C)C(=O)O)c(=O)[nH]/c2=N\c2ccc(OC(C)C)cc2)cc1 [Compound I-1140] — 2.8-fold lower, 44 nM
- C/C=C/c1ccc(Cn2c(=O)n(C[C@H](C)C(=O)OC)c(=O)[nH]/c2=N\c2ccc(OC(C)C)cc2)cc1 [Compound I-1141] — 7.4-fold higher, 911 nM
- C/C=C\c1ccc(Cn2c(=O)n(C[C@H](C)C(=O)OC)c(=O)[nH]/c2=N\c2ccc(OC(C)C)cc2)cc1 [Compound I-1142] — 6.5-fold higher, 802 nM
- CCCc1ccc(Cn2c(=O)n(C[C@H](C)C(=O)OC)c(=O)[nH]/c2=N\c2ccc(OC(C)C)cc2)cc1 [Compound I-1144] — 6.2-fold higher, 764 nM
- CCOC(=O)CCn1c(=O)[nH]/c(=N\c2ccc(OCC3CC3)cc2)n(Cc2ccc(C)cc2)c1=O [Compound I-1146] — 14-fold lower, 9 nM
- CCOC(=O)CCn1c(=O)[nH]/c(=N\c2ccc(OCC3CC3)cc2)n(Cc2ccc(Cl)cc2)c1=O [Compound I-1147] — 12-fold lower, 10 nM
- Cc1ccc(Cn2c(=O)n(CCC(=O)O)c(=O)[nH]/c2=N\c2ccc(OCC3CC3)cc2)cc1 [Compound I-1148] — within 1.5-fold, 86 nM
- C/C=C\c1ccc(Cn2c(=O)n(C[C@H](C)C(=O)O)c(=O)[nH]/c2=N\c2ccc(OC(C)C)cc2)cc1 [Compound I-1150] — 4.5-fold higher, 551 nM
- COC(=O)[C@@H](C)Cn1c(=O)[nH]/c(=N\c2cccc(SC)c2)n(Cc2ccc(Cl)cc2)c1=O [Compound I-1151] — 2.7-fold lower, 46 nM
- CSc1cccc(/N=c2\[nH]c(=O)n(C[C@H](C)C(=O)O)c(=O)n2Cc2ccc(Cl)cc2)c1 [Compound I-1152] — within 1.5-fold, 110 nM
- COC(=O)[C@@H](C)Cn1c(=O)[nH]/c(=N\c2cccc(SC)c2)n(Cc2ccc(C)cc2)c1=O [Compound I-1153] — 1.7-fold lower, 71 nM
- CSc1cccc(/N=c2\[nH]c(=O)n(C[C@H](C)C(=O)O)c(=O)n2Cc2ccc(C)cc2)c1 [Compound I-1154] — within 1.5-fold, 131 nM
- CCOC(=O)CCn1c(=O)[nH]/c(=N\c2ccc(OC(C)C)c(C)c2)n(Cc2ccc(Cl)cc2)c1=O [Compound I-1155] — 14-fold lower, 9 nM
- CCOC(=O)CCn1c(=O)[nH]/c(=N\c2ccc(OC(C)C)c(C)c2)n(Cc2ccc(C)cc2)c1=O [Compound I-1156] — 20-fold lower, 6 nM
- Cc1cc(/N=c2\[nH]c(=O)n(CCC(=O)O)c(=O)n2Cc2ccc(Cl)cc2)ccc1OC(C)C [Compound I-1157] — 2.4-fold lower, 52 nM
- Cc1ccc(Cn2c(=O)n(CCC(=O)O)c(=O)[nH]/c2=N\c2ccc(OC(C)C)c(C)c2)cc1 [Compound I-1158] — 2-fold lower, 63 nM
- C/C=C/c1ccc(Cn2c(=O)n(C[C@H](C)C(=O)O)c(=O)[nH]/c2=N\c2ccc(OC(C)C)cc2)cc1 [Compound I-1160] — 7.9-fold higher, 973 nM
- Cc1ccc(Cn2c(=O)n(C[C@H](C)C(=O)O)c(=O)[nH]/c2=N\c2ccc(OC(F)F)cc2)cc1 [Compound I-1161] — within 1.5-fold, 148 nM
- C[C@@H](Cn1c(=O)[nH]/c(=N\c2ccc(OC(F)F)cc2)n(Cc2ccc(Cl)cc2)c1=O)C(=O)O [Compound I-1162] — within 1.5-fold, 179 nM
- Cc1cc(/N=c2\[nH]c(=O)n([C@H](C)[C@@H](C)C(=O)N[C@H](C)[C@@H](O)c3ccccc3)c(=O)n2Cc2ccc(Cl)cc2)ccc1OC(C)C [Compound I-1163] — 6.7-fold higher, 823 nM
- COC(=O)[C@@H](C)Cn1c(=O)[nH]/c(=N\c2ccc(OC(F)F)cc2)n(Cc2ccc(Cl)cc2)c1=O [Compound I-1166] — within 1.5-fold, 126 nM
- CCOC(=O)CCn1c(=O)[nH]/c(=N\c2ccc(OC(C)C)c(Br)c2)n(Cc2ccc(C)cc2)c1=O [Compound I-1168] — 31-fold lower, 4 nM
- COC(=O)[C@@H](C)Cn1c(=O)[nH]/c(=N\c2ccc(C=C(C)C)c(F)c2)n(Cc2ccc(C)cc2)c1=O [Compound I-1171] — 4.9-fold lower, 25 nM
